Data published in patent publication US20250312493A1, “FLUOROPHORE-LOADED GELATIN-BASED NANOPARTICLES FOR NEAR-INFRARED IMAGING” (The Board of Trustees of the University of Illinois, priority 2022, published 2025).

Assays:
[1] = Fluorescence intensity of blood after intravenous administration; type: in vivo, healthy nude mice; conditions: 24-hour post-administration, equivalent to 2 mg/kg ICG
Method: Healthy nude mice were administered with either 100 μl PBS solutions of ICG-free or ICG-GNP I (equivalent to 2 mg/kg ICG) intravenously via retro-orbital injection. 100 μl of blood was collected from the lateral tail vein immediately and 24 hours after the administration, transferred to a 96-well plate, and analyzed their fluorescence intensity using the IVIS (n=3).

[2] = Fluorescence intensity at various ICG concentrations in PBS (IVIS); type: physicochemical; conditions: 0.05 μM-100 μM ICG
Method: GNP I or GNP II dispersed in 1 ml of ICG in DI-H2O, with a GNP-to-ICG weight ratio of 20, were incubated for 2 hours at 25° C. The resulting suspension was centrifuged (13,000 rpm/5 min) to discard free ICG in the supernatant. The fluorescence intensity of naked ICG (ICG-free), ICG-loaded GNP I (ICG-GNP I) and GNP II (ICG-GNP II) at various ICG concentrations was recorded and quantified using an In Vivo Imaging System (IVIS, Perkin Elmer, Waltham, MA, USA) (ex 740/em 800 nm).

[3] = tested on: 4T1 tumor; assay: In vivo NIR fluorescence imaging, tumor to background ratio; design: species or system mice
Method: Animal tumor model: Female immunodeficient mice (J:NU, 2 months old, average body weight 25 g) were purchased from the Jackson Laboratory (Bar Harbor, Maine, USA). Animal study was performed in strict accordance with the recommendations in the Guide for the Care and Use of Laboratory Animals of the National Institutes of Health. Breast cancer xenograft was established by the orthotopic administration of 100 μl 4T1 cell solution (10^6 cells per injection) at the mammary fat pad of the second nipple of the left side of each mouse using a 27G½ needle. Anesthesia was maintained by mask inhalation of 1.5-2.0% isoflurane throughout the procedure.
In vivo and ex vivo NIR fluorescence (NIRF) imaging: When the tumor area reached 10 mm^2 within 14 days, nine tumor-bearing mice were administered with ICG, ICG-GNP I or ICG-GNP II, i.e., three mice for each probe, […] The mice administered with ICG-GNP II were imaged using a bioinspired imaging sensor developed for NIRF image-guided surgery. At each time point, the fluorescence from the primary tumor and surrounding tissues (background) of mice under 2% isoflurane were recorded at 37° C. as regions of interest using the IVIS. A ratio between the mean fluorescence from the tumor and background was assessed and expressed as a TBR. […] The fluorescence intensity of each organ or tissue was acquired using the IVIS and bioinspired imaging sensor.

CC1(C)C(/C=C/C=C/C=C/C=C2\N(CCCCS(=O)(=O)O)c3ccc4ccccc4c3C2(C)C)=[N+](CCCCS(=O)(=O)[O-])c2ccc3ccccc3c21 [ICG-free, indocyanine green]
fluorescence of blood samples [1]: minimal fluorescence
ICG concentration above which MFI decreases [2]: above 50 μM
ICG concentration at which MFI reaches a peak [2]: 10 µM
differences in MFI between the tumor and background ([3]; 1 mg/kg dose): no measurable differences
TBR (tumor to background ratio) ([3]; during a 24-hour period, 2 mg/kg dose, IVIS): ~1.5
